Data reported in BindingDB's records for patent US11926628 (Gilead Sciences, 2024).

What follows are compounds tested against Diacylglycerol kinase alpha (Homo sapiens, UniProt P23743) (assay: DGKα Biochemical Activity Assay).
Procedure: Ten nanoliters of test compound dissolved in DMSO at various concentrations were dispensed into a 384-well low volume nonbinding service white plates (Corning #3824) using a Labcyte Echo instrument. Recombinant DGKα (Carna Biosciences) in assay buffer (5 μL in 50 mM MOPS [3-(N-morpholino) propanesulfonic acid], pH 7.2; 0.0025% Triton X-100; 1 mM dithiothreitol; 5 mM MgCl2, 200 μM ATP) was added to the compound-containing plate and was incubated for 15 minutes at 25° C. A substrate solution (5 μL in 1.7 mM 1,2-dioleoyl-sn-glycerol [18:1 DAG], 13.5 mM 1-palmitoyl-2-oleoyl-sn-glycero-3-phospho-L-serine [16:0-18:1 PS](POPS), 2 μM CaCl2, 100 mM Octylglucoside (OG), 1 mM DTT) (obtained from Carna Biosciences) diluted in DGK ALPHA assay buffer was then added to start the reaction. Final concentrations were 1 nM DGKα, 100 μM ATP, 1 μM calcium chloride, 0.85 mM 1,2-dioleoyl-sn-glycerol (18:1 DAG), 6.75 mM 1-palmitoyl-2-oleoyl-sn-glycero-3-phospho-L-serine (16:0-18:1 PS) (POPS), 1 μM CaCl2), 50 mM Octylglucoside (OG) and 5 mM MgCl2. The reaction mixture was incubated at 25° C. for 1 hour. ADP-Glo Reagent (10 μL, 10 mM Mg added) provided by the kit was added to each well and incubated at 25° C. for 40 minutes. Then, 20 μL of Kinase Detection Reagent was added and incubated at 25° C. for 40 minutes. Luciferase activity of each well was measured via luminescence on an Envision plate reader (PerkinElmer).

Sequence of Diacylglycerol kinase alpha (P23743 whole entry): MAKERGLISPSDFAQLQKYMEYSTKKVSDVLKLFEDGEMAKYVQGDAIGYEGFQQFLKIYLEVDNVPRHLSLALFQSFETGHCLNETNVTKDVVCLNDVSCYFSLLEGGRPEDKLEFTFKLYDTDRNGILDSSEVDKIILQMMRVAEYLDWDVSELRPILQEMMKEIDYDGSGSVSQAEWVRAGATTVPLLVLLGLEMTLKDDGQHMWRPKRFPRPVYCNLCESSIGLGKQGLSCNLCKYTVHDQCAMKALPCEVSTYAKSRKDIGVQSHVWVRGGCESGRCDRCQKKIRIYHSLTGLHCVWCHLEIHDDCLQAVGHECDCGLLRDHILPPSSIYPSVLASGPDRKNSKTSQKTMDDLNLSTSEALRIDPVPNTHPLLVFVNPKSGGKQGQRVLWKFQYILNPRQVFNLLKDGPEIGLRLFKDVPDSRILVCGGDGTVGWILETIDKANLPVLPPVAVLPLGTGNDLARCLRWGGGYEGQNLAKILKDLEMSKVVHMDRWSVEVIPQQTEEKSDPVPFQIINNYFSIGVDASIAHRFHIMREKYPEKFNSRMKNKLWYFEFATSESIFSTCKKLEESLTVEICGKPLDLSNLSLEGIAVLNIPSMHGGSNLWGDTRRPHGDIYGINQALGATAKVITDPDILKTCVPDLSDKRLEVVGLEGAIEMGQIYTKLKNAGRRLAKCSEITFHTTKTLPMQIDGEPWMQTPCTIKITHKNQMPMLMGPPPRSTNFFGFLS

| SMILES | IC50 [nM] |
| --- | --- |
| CN(C)c1ccc2c(N(C)c3cccc(-c4ccc(C5CC5)cc4)c3)nc3nncn3c2n1 [US11926628, Example 112] | 66.7 |
| CCOc1ccc2c(N(C)c3cccc(-c4ccc(C5CC5)cc4)c3)nc3nncn3c2n1 [US11926628, Example 113] | 702 |
| Cc1nnc2nc(N3CCCCc4c(C#CC(C)(C)C#N)cccc43)c3c(F)cncc3n12 [US11926628, Example 64] | 5.79 |
| Cc1nnc2nc(N3CCCc4c(C#CC5(C(F)(F)F)CC5)cccc43)c3c(F)cncc3n12 [US11926628, Example 41] | 7.82 |

Further lines, results first:

| IC50 [nM] | SMILES |
| --- | --- |
| 375 | COc1ccc(-c2cccc(N(C)c3nc4nncn4c4nc(N(C)C)ccc34)c2)cn1 [US11926628, Example 111] |
| 930 | CN(C)c1ccc2c(N(C)c3cccc(C#CC(C)(C)C)c3)nc3nncn3c2n1 [US11926628, Example 110] |
| 61.5 | CN(c1cccc(C#CC(C)(C)C)c1)c1nc2nncn2c2cnccc12 [US11926628, Example 60] |
